Measured values taken from patent US20230151373A1, “CHIMERIC POLYPEPTIDE FOR REGULATING IMMUNE CELLS” (STICHTING HET NEDERLANDS KANKER INSTITUUT-ANTONI VAN …, priority 2019, published 2023).
“Also recorded” adds a separate entry of the source.

Experiments:
[1] = tested on: primary human T cells modified with the HLA class I restricted CDK4 TCR; experiment: Cytokine release and degranulation assay, CDK4 TCR T cells co-cultured with CDK4 peptide loaded T2 cells; assay type: cell-based
Description: (§1) For use as T cell targets, T2 and CBH 5477 cells were loaded with the indicated concentrations of HLA-A*02:01 restricted mutant CDK4 peptide (ALDPHSGHFV), HLA A*02:01 restricted NY-ESO-1 peptide (SLLMWITQA), or HLA-DR1 restricted CMV peptide (KYQEFFWDANDIYRI) in IMDM for 1 hour at 37° C. Cells were then washed once and used in co-culture experiments.
(§2) T cells and NK cells were pretreated with the indicated concentrations of asunaprevir (MedChemExpress, #HY-14434), grazoprevir (MedChemExpress, #HY-15298), dTAG-13 (Tocris, #6605) or DMSO control in T cell media (RPMI/10% human serum/penicillin-streptomycin, 100 IU/ml IL2 and 5 ng/ml IL15) or NK cell media (RPMI/8% FCS/penicillin-streptomycin, 500 IU/ml IL2), respectively, for 24 hours before co-culture experiments. 100,000 T cells or NK cells and 100,000 of indicated tumor cells were mixed in T cell or NK cell media supplemented with golgi-plug (1:1000 dilution, BD, #51-2301KZ) and anti-LAMP1-APC (1:100 dilution, Biolegend, #328620) in the presence of indicated drugs or DMSO control in 96-well plates and incubated for 5 hours at 37° C.
(§3) After incubation, cells were washed once with PBS and stained with IR dye (Invitrogen, #L34976) at 1:400 dilution for 5 minutes at 4° C. Subsequently, cells were washed once with FACS buffer (PBS plus 0.5% BSA) and stained with anti-CD8-PerCP Cy5.5 (1:20 dilution, BD, #341050), anti-CD4 BV711 (1:50 dilution, Biolegend, #317440), anti-murine constant TCR-PE (in experiments with transduced TCRs, 1:200 dilution, BD, #553172) or cetuximab-PE (in experiments with transduced CAR construct containing truncated human EGFR reporter, 1:200 dilution, R&D Systems, #FAB9577P) for 20 minutes at 4° C. Cells were then washed once with FACS buffer and fixed with BD fixation and permeabilization solution (#51-2090KZ) for 20 minutes at 4° C.
(§4) Following permeabilization, cells were washed twice with BD perm/wash buffer (#51-2091KZ) and stained with anti-IFNγ-BV421 (1:100 dilution, BD, #564791), anti-IL-2-PE-Cy7 (1:100 dilution, BD, #560707) and anti-TNFα-BV650 (1:100 dilution, Biolegend, #502938) diluted in perm/wash buffer for 20 min at 4° C. Cells were then washed twice, resuspended in 100 μl FACS buffer and analyzed directly on a Fortessa Special Order analyzer. Data were analyzed using FlowJo and Prism 7 software.

[2] = tested on: anti-CD19-CD28-CD3ζ chain CAR modified human T cells; experiment: Cytokine release and degranulation assay, anti-CD19-CD28-CD3ζ CAR T cells co-cultured with Raji or Daudi; assay type: cell-based; details: co-culture with CD19 positive Raji or Daudi; 10 μM asunaprevir
Description: as §2
(§5) After incubation, cells were washed once with PBS and stained with IR dye (Invitrogen, #L34976) at 1:400 dilution for 5 minutes at 4° C. […]
as §4

[3] = tested on: CD8 T cells modified with an NY-ESO-1 shared antigen specific TCR; experiment: Cytokine release and degranulation assay, NY-ESO-1 TCR T cells co-cultured with NY-ESO-1 peptide loaded T2 cells; assay type: cell-based, human; details: 10 μM asunaprevir
Description: as §1
T cells and NK cells were pretreated with the indicated concentrations of asunaprevir (MedChemExpress, #HY-14434), grazoprevir (MedChemExpress, #HY-15298), dTAG-13 (Tocris, #6605) or DMSO control in T cell media (RPMI/10% human serum/penicillin-streptomycin, 100 IU/ml IL2 and 5 ng/ml IL15) or NK cell media (RPMI/8% FCS/penicillin-streptomycin, 500 IU/ml IL2), respectively, for 24 hours before co-culture experiments. […]
as §4

[4] = tested on: primary human T cells modified with the CDK4 TCR and Zap70-PD1-zinc finger degrons; experiment: IMiD regulation of zinc finger degron CRASH-IT switches, CDK4 TCR T cells co-cultured with NKIRTIL006 tumor cells; assay type: cell-based; details: for restoration of activity levels (cytokine production, cell surface LAMP-1) by IMiD: IKZF1-based CRASH-IT switch (IKZF1 ZF2-ZF3 degron)
From the text: Constructs containing various zinc finger degrons in MP71 Zap70-PD1-Zinc finger IRES-EGFP format were created using IKZF1 ZF2-3 degron containing sequence (Q13422, 141-197 aa), or IKZF3 ZF2-3 degron containing sequence (Q9UKT9, 142-198 aa), or ZFP91 ZF4-5 degron containing sequence (Q96JP5, 396-455 aa), ZNF276 ZF4-5 degron containing sequence (Q8N554, 520-579 aa), ZNF653 ZF4-5 degron containing sequence (Q96CK0, 552-611 aa), or ZNF692 ZF4-5 degron containing sequence (Q9BU19, 413-473 aa). For CRASH-IT switches encoding hybrid zinc finger degrons, the IKZF1 ZF2 beta turn sequence (FQCNQCGASFT) was replaced with beta turn sequences from ZNF653 ZF4 (LQCEICGYQCR), ZFP91 ZF4 (LQCEICGFTCR), ZNF276 ZF4 (LQCEVCGFQCR), or ZNF827 ZF1 (FQCPICGLVIK). For the CRASH-IT switch encoding ZFP91/IKZF1 hybrid zinc finger without IKZF1 ZF3 (single ZF), the IKZF1 ZF3 containing sequence (Q13422, 170-197 aa) was deleted from the Zap70-PD1-ZFP91/IKZF1 hybrid zinc finger (double ZF) construct.
as §2
as §3, with “Cells were then washed once with FACS buffer and fixed with BD fixation and permeabilization solution (#51-2090KZ) for 20 minutes at 4° C.” left out
as §4

[5] = tested on: primary human T cells modified with the CDK4 TCR; experiment: Cytokine release and degranulation assay, CDK4 TCR T cells with SMASh or FKBP12^F36V switch co-cultured with NKIRTIL006 tumor cells; assay type: cell-based
Description: as §2, §5, §4

[6] = tested on: NKIRTIL006 tumor cells; experiment: 51Cr release cytotoxicity assay; assay type: cell-based, human; details: 0.5 μM dTAG-13 vs DMSO
Description: Culture media of Zap70-PD1-FKBP^F36V expressing cells is supplemented with 0.5 μM dTAG-13 PROTAC starting one day before cell sorting until 4 days before ^51Cr assay. Primary human T cells modified with the CDK4 TCR plus either the Zap70-PD1-FKBP^F36V switch or IRES-EGFP vector control were sorted on a Beckman Coulter Moflo Astrios using an 80 μM nozzle. Cells were cultured in standard T cell culturing conditions in RPMI/10 human serum/penicillin-streptomycin 100 IU/ml IL-2 and 5 ng/ml IL-15 for 7 days.
After this, cells were expanded using a rapid expansion protocol (REP). […] At day 6, culture media is refreshed with 3000 IU/ml IL-2 containing media and cultures were split into 2 every 3 days with media containing IL-2 (3000 IU/ml final concentration). At day 12, cells were switched to standard T cell culturing conditions (RPMI/10% human serum/penicillin-streptomycin/100 IU/ml IL-2 and 5 ng/ml IL-15) for 3 days, until use in ^51Cr assays.
One day prior to ^51Cr assay, T cells were pretreated with 0.5 μM dTAG-13 PROTAC or DMSO in standard T cell culturing conditions in RPMI/10% human serum/penicillin-streptomycin/100 IU/ml IL-2 and 5 ng/ml IL-15. 5×10^5 tumor cells were resuspended in 100 μl media, mixed gently with 100 ρCi ^51Cr and then incubated at 37° C. for 45 minutes. […]

[7] = tested on: NK cell line KHYG-1; experiment: Cytokine release assay, KHYG-1 NK cells co-cultured with K562 tumor; assay type: cell-based, human; details: Zap70-PD1-FKBP12^F36V switch; 0.5 μM dTAG-13
Description: Human NK cell line KHYG-1 (DSMZ, Leibniz, Germany) was cultured in RPMI supplemented with 8% FBS and penicillin-streptomycin (100 IU/ml penicillin, 100 μg/ml streptomycin) containing 500 IU/ml IL-2 (Novartis). All cell lines were tested for mycoplasma using PCR based screening (Young et al, Nat Protoc. 2010 May; 5(5):929-34) and found negative.
24-well non treated cell culture plates were covered with 10 μg/ml retronectin (Takara, #T100B) overnight at 4° C. The next day, the retronectin solution was removed and wells were blocked with 2% BSA (Sigma-Aldrich, A9418-500g) in PBS for 30 minutes. […]
as §4

[8] = Zap70-PD1-SMASh T cells, 10 μM asunaprevir relative to DMSO-treated cells, peptide-loaded target cells (10 nM)

## C=C[C@@H]1C[C@]1(NC(=O)[C@@H]1C[C@@H](Oc2ncc(OC)c3ccc(Cl)cc23)CN1C(=O)[C@@H](NC(=O)OC(C)(C)C)C(C)(C)C)C(=O)NS(=O)(=O)C1CC1 [asunaprevir]
[1]; [8]
  boost of CD8+ T cell activation, IFNγ: 8.8 fold
  boost of CD8+ T cell activation, IL2: 11.5 fold
  boost of CD8+ T cell activation, TNFα: 6.3 fold
  boost of CD8+ T cell activation, cell surface LAMP1 expression: 6.6 fold
[1]; primary human CD8 and CD4 T cells with Zap70-PD1-SMASh
  drug effect on inhibition of T cell function by Zap70-PD1-SMASh: reverted; also recorded: dose dependent recovery
[1]; vector control T cells, protease inhibitor
  effector functions of Zap70-PD1-SMASh fusion protein-negative T cells (vector control): unaltered
[2]
  T cell functions of CAR T cells with Zap70-PD1-SMASh upon drug addition: recovered
[3]
  functional activity of NY-ESO-1 TCR CD8 T cells with CRASH-IT switch upon drug addition: restored

## O=C1CCC(N2C(=O)c3ccccc3C2=O)C(=O)N1 (centres unmarked) [thalidomide]
[4]
  restoration of activity levels (cytokine production, cell surface LAMP-1) by IMiD: lesser
[4]; T cells expressing the chimeric degrons as compared to the parental IKZF1 ZF2-3 degron
  reduction of thalidomide concentration required for the same level of cytokine production (IFNγ, IL-2, or TNFα) or surface LAMP-1 expression: around 1,000 fold

## Nc1cccc2c1C(=O)N(C1CCC(=O)NC1=O)C2=O (centres unmarked) [pomalidomide]
[4]
  restoration of activity levels (cytokine production, cell surface LAMP-1) by IMiD: robustly restored

## Nc1cccc2c1CN(C1CCC(=O)NC1=O)C2=O (centres unmarked) [lenalidomide]
[4]
  restoration of activity levels (cytokine production, cell surface LAMP-1) by IMiD: robustly restored

## CC[C@H](C(=O)N1CCCC[C@H]1C(=O)O[C@H](CCc1ccc(OC)c(OC)c1)c1ccccc1OCC(=O)NCCCCCCOc1cccc2c1C(=O)N(C1CCC(=O)NC1=O)C2=O)c1cc(OC)c(OC)c(OC)c1 (some centres unmarked) [dTAG-13]
[5]; FKBP12^F36V/dTAG-13 based switches, high drug concentrations
  reactivation of T cell function at high drug concentrations: suboptimal reactivation of T cell function
[5]; small-molecule titration, Zap70-PD1-FKBP12^F36V (dTAG-13) or Zap70-PD1-SMASh (HCV NS3/4A inhibitors)
  concentration at which activation of CRASH-IT platform peaks: around 0.5 μM
[6]
  cytotoxic activity of control vector-modified T cells: unaltered
  killing of 51Cr loaded NKIRTIL006 tumor cells by sorted CD8 cells with Zap70-PD1-FKBP12^F36V: increased killing
[7]
  suppression of NK cell cytokine production in the presence of drug: reversed
